Results from patent US20250170224A1, “METHODS AND COMPOSITIONS FOR TREATING MICROGLIAL DYSFUNCTION AND IMPROVING METABOLIC DYSFUNCTION” (Ultimate Medicine AG, priority 2021, published 2025).

What was measured:
[1] = healthy subjects; ingested lactulose 5 grams, mannitol 1 gram; cited from earlier work
[2] = system: microglia; type: in vivo; details: young-adult mice, i.p. once per day for two weeks; for intracellular ROS production / oxidative stress in microglia: CellROX
Experimental: Mice of the aged group in the nontargeted metabolomics analysis were 17-18 months old. Except for nontargeted metabolomics and microbiota profiling, where only male mice were used, all groups included mice from both sexes. Mice were housed under a 12-hour light/12-hour dark cycle and temperatures of 18-23° C. with 40-60% humidity, with food and water given ad libitum. To avoid cage effects, mice from at least three different cages per experimental group were analyzed. […] For modulation of CML in aged animals, 18-month-old SPF housed C57BL/6 mice were treated orally every third day for 10 weeks with vehicle (20% hydroxypropyl-p-cyclodextrin in 1× phosphate-buffered saline (PBS)), 10 mg kg^−1 ellagic acid (EA) or 3,000 U kg^−1 intestinal alkaline phosphatase (IAP). To assess in vivo intestinal permeability, tracer fluorescein isothiocyanate (FITC)-labeled dextran (4 kDa: Sigma-Aldrich) was used. Briefly, mice were deprived of food 4 hours before and both food and water 4 hours after oral gavage using 200 μl of 80 mg ml^−1 FITC-dextran. Blood was collected retro-orbitally after 4 hours and fluorescence intensity was measured on fluorescence plates using an excitation wavelength of 493 nm and an emission wavelength of 518 nm. To assess in vivo intestinal permeability to CML, mice were treated with […] CML (0.36 mM). Blood was collected retro-orbitally immediately before and 4 hours after treatment. CML translocated into the circulation was measured by liquid chromatography-mass spectrometry (LC-MS). All animal experiments were approved by the local administration in Germany (Regierungsprasidium Freiburg) and were performed in accordance with the respective national, federal, and institutional regulations and the guidelines of the Federation of European Laboratory Animal Science Associations.
Mice were lethally anesthetized with ketamine (100 mg kg^−1 body weight) and xylazine (10 mg kg^−1 body weight) followed by perfusion with 1×PBS through the left heart chamber. For histology, brains were kept overnight in 4% paraformaldehyde (PFA). For flow cytometry and magnetic-activated cell sorting (MACS) beads cell sorting, brains were dissected, homogenized and filtered through a […] mesh. […] Myelin was removed from the top layer and the cell pellet was washed once with 1×PBS followed by antibody staining.
Brain specimens from the cortex were first fixed overnight in 3% glutaraldehyde at 4° C., washed with Sorensen buffer, and then transferred to 1% osmium tetroxide for 2 hours at room temperature. Next, samples were dehydrated by a graded series of ethanol (30-100%) followed by 100% propylene oxide, resin/propylene oxide (1:2 (v/v)) and resin/propylene oxide (2:1 (v/v)). Samples were embedded in resin via polymerization for 24 hours at 75° C. Then, 700-nm semithin sections were cut and stained with 2% toluidine blue to define the region of interest for further preparation of 70 nm ultrathin sections using an ultramicrotome (Leica Reichert Ultracut S) after contrasting the sections with uranyl acetate and lead citrate (Leica Reichert Ultrastainer). To assess the mitochondrial phenotype in microglia, images were acquired with a ×7,900 or ×46,000 magnification using a CM100 electron microscope (Philips).
Cell sorting for RT-qPCR and RNA sequencing (RNA-seq) was performed on a MoFlo Astrios (Beckman Coulter; FIG. 7a). Before surface staining, dead cells were excluded by using the Fixable Viability Dye eFluor 780 (1:1,000 dilution; Thermo Fisher Scientific) followed by incubation with Fc receptor blocking antibody CD16/CD32 (1:200 dilution, clone 2.4G2; BD Bioscience). […] To assess microglial cellular reactive oxidative species (ROS), the CellROX DeepRed Reagent ([…]; Thermo Fisher Scientific) was used. To assess mitochondrial activity, Tetramethylrhodamine, Methyl Ester, Perchlorate (50 nM; Thermo Fisher Scientific) and MitoTracker Green FM (20 nM; Thermo Fisher Scientific) were used.

[3] = system: gut barrier / microglia; experiment: Aged SPF mice (18 months old) treated orally every third day for 10 weeks with EA or IAP; type: in vivo, mouse (C57BL/6); details: for ATP levels in microglia / cellular ROS in microglia (CellROX): compared to vehicle-treated aged mice; for CML accumulation in the brain (LC-MS) / gut permeability (FITC-dextran 4 kDa translocation to the circulation): oral, every 3 days for 10 weeks
Experimental: Specific pathogen-free (SPF) and germ-free (GF) housed C57BL/6 mice were analyzed at 6-10 weeks of age (young-adult) and 96-104 weeks of age (aged). Mice of the aged group in the nontargeted metabolomics analysis were 17-18 months old. Except for nontargeted metabolomics and microbiota profiling, where only male mice were used, all groups included mice from both sexes. Mice were housed under a 12-hour light/12-hour dark cycle and temperatures of 18-23° C. with 40-60% humidity, with food and water given ad libitum. To avoid cage effects, mice from at least three different cages per experimental group were analyzed. For the treatment, young-adult mice (8 weeks old) were injected intraperitoneally or by oral gavage with CML (0.735 mg kg^−1; Iris Biotech), trimethylamine N-oxide (TMAO) (3.95 mg kg^−1; Sigma-Aldrich), sodium acetate (59 mg kg^−1; Sigma-Aldrich) and sodium propionate (4.61 mg kg^−1; Sigma-Aldrich) daily for 14 days. For modulation of CML in aged animals, 18-month-old SPF housed C57BL/6 mice were treated orally every third day for 10 weeks with vehicle (20% hydroxypropyl-p-cyclodextrin in 1× phosphate-buffered saline (PBS)), 10 mg kg^−1 ellagic acid (EA) or 3,000 U kg^−1 intestinal alkaline phosphatase (IAP). To assess in vivo intestinal permeability, tracer fluorescein isothiocyanate (FITC)-labeled dextran (4 kDa: Sigma-Aldrich) was used. Briefly, mice were deprived of food 4 hours before and both food and water 4 hours after oral gavage using 200 μl of 80 mg ml^−1 FITC-dextran. Blood was collected retro-orbitally after 4 hours and fluorescence intensity was measured on fluorescence plates using an excitation wavelength of 493 nm and an emission wavelength of 518 nm. To assess in vivo intestinal permeability to CML, mice were treated with […] CML (0.36 mM). Blood was collected retro-orbitally immediately before and 4 hours after treatment. CML translocated into the circulation was measured by liquid chromatography-mass spectrometry (LC-MS). All animal experiments were approved by the local administration in Germany (Regierungsprasidium Freiburg) and were performed in accordance with the respective national, federal, and institutional regulations and the guidelines of the Federation of European Laboratory Animal Science Associations.
Cell sorting for RT-qPCR and RNA sequencing (RNA-seq) was performed on a MoFlo Astrios (Beckman Coulter; FIG. 7a). Before surface staining, dead cells were excluded by using the Fixable Viability Dye eFluor 780 (1:1,000 dilution; Thermo Fisher Scientific) followed by incubation with Fc receptor blocking antibody CD16/CD32 (1:200 dilution, clone 2.4G2; BD Bioscience). The following antibodies were used for surface staining: anti-CD45 (1:200 dilution, clone 30-F11; Thermo Fisher Scientific); anti-CD11b (1:200 dilution, clone MI/70; Thermo Fisher Scientific). The following lineage antibodies were used (all at 1:300 dilution): anti-CD3 (clone 17A2; BioLegend); anti-CD19 (clone 6D5; BioLegend); anti-CD45R (clone RA3-6B2; BD Biosciences); Ly6C (clone AL-21; BD Biosciences); Ly6G (clone 1A8; BD Biosciences). To assess microglial cellular reactive oxidative species (ROS), the CellROX DeepRed Reagent ([…]; Thermo Fisher Scientific) was used. To assess mitochondrial activity, Tetramethylrhodamine, Methyl Ester, Perchlorate (50 nM; Thermo Fisher Scientific) and MitoTracker Green FM (20 nM; Thermo Fisher Scientific) were used. Dead cells were excluded by short incubation with DAPI before flow cytometry analysis with the FACSCanto II (BD Biosciences). Data were acquired with the FACSDiva v.6 software (Becton Dickinson). Postacquisition analysis was performed with FlowJo v.10 (FlowJo LLC).
To avoid the cellular stress of fluorescence-activated cell sorting (FACS), microglial cells were isolated using the magnetic-activated cell sorting (MACS) separation system (Miltenyi Biotec; FIG. 7b). […]

OC[C@H]1O[C@@H](O[C@@H]2[C@@H](CO)OC(O)(CO)[C@H]2O)[C@H](O)[C@@H](O)[C@H]1O (mixture of isomers) [lactulose]
normal value of excretion in urine (percentage of ingested amount) [1]: about 0.35%

OC[C@@H](O)[C@@H](O)[C@H](O)[C@H](O)CO [mannitol]
normal value of excretion in urine (percentage of ingested amount) [1]: ~12.3%

CC(=O)[O-].[Na+] [sodium acetate]
metabolic function (metabolic/mitochondrial activity) of microglia [2]: no effect
intracellular ROS production / oxidative stress in microglia [2]: no effect

C[N+](C)(C)[O-] [TMAO, trimethylamine N-oxide]
metabolic function (metabolic/mitochondrial activity) of microglia [2]: no effect
intracellular ROS production / oxidative stress in microglia [2]: no effect

CCC(=O)[O-].[Na+] [sodium propionate]
metabolic function (metabolic/mitochondrial activity) of microglia [2]: no effect
intracellular ROS production / oxidative stress in microglia [2]: no effect

O=c1oc2c(O)c(O)cc3c(=O)oc4c(O)c(O)cc1c4c23 [EA, ellagic acid]
ATP levels in microglia [3]: increased ATP levels
cellular ROS in microglia (CellROX) [3]: significant reduction
CML accumulation in the brain (LC-MS) [3]: reduced
gut permeability (FITC-dextran 4 kDa translocation to the circulation) [3]: no direct effect

B1: IAP: intestinal alkaline phosphatase, an endogenous enhancer of the gut barrier function (exemplary CAS No. 9001-78-9 (calf)) (protein, UniProt P19111 20-506, looked up)
Intestinal-type alkaline …: LVPVEEEDPAFWNRQAAQALDVAKKLQPIQTAAKNVILFLGDGMGVPTVTATRILKGQMNGKLGPETPLAMDQFPYVALSKTYNVDRQVPDSAGTATAYLCGVKGNYRTIGVSAAARYNQCKTTRGNEVTSVMNRAKKAGKSVGVVTTTRVQHASPAGAYAHTVNRNWYSDADLPADAQMNGCQDIAAQLVNNMDIDVILGGGRKYMFPVGTPDPEYPDDASVNGVRKRKQNLVQAWQAKHQGAQYVWNRTALLQAADDSSVTHLMGLFEPADMKYNVQQDHTKDPTLQEMTEVALRVVSRNPRGFYLFVEGGRIDHGHHDDKAYMALTEAGMFDNAIAKANELTSELDTLILVTADHSHVFSFGGYTLRGTSIFGLAPSKALDSKSYTSILYGNGPGYALGGGSRPDVNDSTSEDPSYQQQAAVPQASETHGGEDVAVFARGPQAHLVHGVEEETFVAHIMAFAGCVEPYTDCNLPAPTTATSIPD
ATP levels in microglia [3]: increased ATP levels
cellular ROS in microglia (CellROX) [3]: significant reduction
CML accumulation in the brain (LC-MS) [3]: reduced
gut permeability (FITC-dextran 4 kDa translocation to the circulation) [3]: lower gut leakiness
